For test [1], the target named is T1, CDK12 (Homo sapiens, UniProt Q9NYV4). Kind of test: CDK12 kinase inhibitory activity assay (33P-ATP filter binding). Type of test: biochemical. Here is the method: (§1) Before initiating the CDK12 and CDK13 kinase reactions, each Example compound was dissolved and diluted in DMSO as a solvent across 9 concentration ranges at room temperature. The diluted solutions were then incubated with a mixture of kinase and substrate (and cofactors, if required) for 20 minutes. Next, radioisotope-labeled ATP (^33P-gamma-ATP) was added to proceed with the kinase reaction at room temperature for 120 minutes. After the reaction was completed, the reaction mixture was transferred to a filter paper that binds the radioisotope-labeled catalytic product (^33P-substrate). Unreacted ^33P-ATP was removed by washing with 0.75 % phosphoric acid, and then the radioactive phosphorylated substrate remaining on the filter paper was measured. Kinase activity data were expressed as a percentage of the kinase activity remaining in the test sample compared to a DMSO control group. The half-maximal inhibitory concentration (IC50) for each kinase was calculated using Prism (Graphpad) software.
T1 sequence (Q9NYV4 whole entry, species assumed): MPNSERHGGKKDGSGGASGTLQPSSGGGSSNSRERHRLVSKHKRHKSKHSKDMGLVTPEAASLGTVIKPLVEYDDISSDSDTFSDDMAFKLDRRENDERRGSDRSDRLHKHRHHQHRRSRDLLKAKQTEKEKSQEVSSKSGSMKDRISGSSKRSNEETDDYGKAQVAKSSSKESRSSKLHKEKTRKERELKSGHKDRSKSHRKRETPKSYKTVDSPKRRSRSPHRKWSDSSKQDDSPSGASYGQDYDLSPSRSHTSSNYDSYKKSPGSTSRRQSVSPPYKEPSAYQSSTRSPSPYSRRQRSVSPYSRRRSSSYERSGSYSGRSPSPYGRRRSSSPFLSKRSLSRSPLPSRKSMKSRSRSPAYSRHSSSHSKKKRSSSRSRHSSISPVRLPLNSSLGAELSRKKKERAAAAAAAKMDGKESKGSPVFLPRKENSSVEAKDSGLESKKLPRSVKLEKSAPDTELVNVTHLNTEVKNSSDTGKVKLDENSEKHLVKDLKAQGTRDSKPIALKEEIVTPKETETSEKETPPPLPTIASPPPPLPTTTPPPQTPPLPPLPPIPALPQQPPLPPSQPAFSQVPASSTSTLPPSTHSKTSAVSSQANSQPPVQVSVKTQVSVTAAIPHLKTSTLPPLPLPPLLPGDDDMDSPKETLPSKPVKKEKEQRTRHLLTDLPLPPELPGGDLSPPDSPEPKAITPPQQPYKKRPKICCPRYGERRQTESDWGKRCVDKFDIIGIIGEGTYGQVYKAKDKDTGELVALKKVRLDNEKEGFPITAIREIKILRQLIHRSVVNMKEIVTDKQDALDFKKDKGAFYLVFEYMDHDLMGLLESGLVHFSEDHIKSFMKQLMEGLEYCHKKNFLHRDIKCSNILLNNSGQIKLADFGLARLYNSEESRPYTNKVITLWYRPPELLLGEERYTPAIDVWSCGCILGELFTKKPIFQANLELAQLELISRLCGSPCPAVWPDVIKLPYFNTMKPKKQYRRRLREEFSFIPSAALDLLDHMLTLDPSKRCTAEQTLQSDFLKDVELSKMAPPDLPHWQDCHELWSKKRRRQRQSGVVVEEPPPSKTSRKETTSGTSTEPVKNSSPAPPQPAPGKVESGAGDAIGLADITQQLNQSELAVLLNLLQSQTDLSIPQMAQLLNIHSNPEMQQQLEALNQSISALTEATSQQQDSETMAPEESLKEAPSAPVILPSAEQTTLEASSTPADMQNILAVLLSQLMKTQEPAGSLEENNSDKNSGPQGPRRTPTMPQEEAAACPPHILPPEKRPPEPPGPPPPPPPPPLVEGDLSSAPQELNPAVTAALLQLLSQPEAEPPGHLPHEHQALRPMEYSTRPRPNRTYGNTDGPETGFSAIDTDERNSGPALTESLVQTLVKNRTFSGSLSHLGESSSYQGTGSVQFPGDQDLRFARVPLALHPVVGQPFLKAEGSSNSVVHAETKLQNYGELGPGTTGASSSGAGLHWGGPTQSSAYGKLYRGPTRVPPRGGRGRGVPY
T1 sequence (O75909 whole entry partner, species assumed): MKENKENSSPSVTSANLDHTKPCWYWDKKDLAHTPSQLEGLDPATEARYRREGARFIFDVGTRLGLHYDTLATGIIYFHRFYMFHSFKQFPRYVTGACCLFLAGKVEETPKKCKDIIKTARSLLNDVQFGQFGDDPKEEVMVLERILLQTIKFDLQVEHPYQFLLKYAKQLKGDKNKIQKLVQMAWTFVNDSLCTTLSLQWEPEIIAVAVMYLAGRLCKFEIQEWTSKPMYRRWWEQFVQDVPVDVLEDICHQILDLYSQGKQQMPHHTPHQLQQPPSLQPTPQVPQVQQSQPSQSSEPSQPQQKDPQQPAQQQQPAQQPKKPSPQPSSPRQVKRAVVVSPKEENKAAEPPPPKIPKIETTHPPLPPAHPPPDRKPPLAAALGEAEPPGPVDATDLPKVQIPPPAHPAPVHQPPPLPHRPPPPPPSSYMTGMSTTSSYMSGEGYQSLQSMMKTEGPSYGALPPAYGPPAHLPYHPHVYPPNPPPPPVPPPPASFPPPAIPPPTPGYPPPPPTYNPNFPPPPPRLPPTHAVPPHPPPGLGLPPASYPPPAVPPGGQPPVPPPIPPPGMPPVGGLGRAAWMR

A further test concerns the target CDK13 (Homo sapiens, UniProt Q14004). Kind of test: CDK13 kinase inhibitory activity assay (33P-ATP filter binding). Type of test: biochemical. Here is the method: as §1
For test [2], the system named is MDA-MB-231 breast cancer cells. Kind of test: Proliferation inhibitory activity assay against MDA-MB-231 breast cancer cells. Type of test: cell-based. The settings on record: Homo sapiens, 72 hours, CellTiter Glo, relative IC50. Here is the method: Experiments were performed using the MDA-MB-231 breast cancer cell line to measure the cell proliferation inhibitory ability of each Example compound. MDA-MB-231 cells were dispensed into a 96-well plate at 100 µL of cell suspension per well using L-15 (Invitrogen) medium containing 10 % FBS, followed by incubation in a cell incubator at 37 °C and 0 % CO2. The next day, each Example compound dissolved and diluted in DMSO across 9 concentration ranges and a DMSO control group were treated on the cells for 72 hours. After the compound treatment was completed, 100 µL of CellTiter Glo (Promega) reagent was added to each well of the 96-well plate, followed by shaking for 10 minutes and standing at room temperature for 10 minutes. Luminescence signals were measured after inserting the 96-well plate into an Envision plate reader (PerkinElmer). Relative IC50 values were calculated by fitting a dose-response curve using XLfit (IDBS Ltd) software.
The breast cancer cell proliferation inhibitory activities of the Example compounds measured by the above method were evaluated according to the following criteria, and the results are presented in Table 13.
On the technique in general: Cellular ATP, detected with luciferase, serves as a proxy for viable cell number.

The target of test [3] is T1, CDK12. Kind of test: Cellular CDK12 inhibitory activity assay (Ser2 phosphorylation of RNA polymerase II subunit B1 CTD in MDA-MB-231 cells). Type of test: cell-based. The settings on record: MDA-MB-231 cells, 6 hours treatment; read-out: pRpbl CTD S2 IC50. Also noted: using MDA-MB-231 breast cancer cells; endogenous in cells; host or cells: MDA-MB-231. Here is the method:
MDA-MB-231 cells were dispensed into a 96-well plate at 100 µL of cell suspension per well using L-15 (Invitrogen) medium containing 10 % FBS, followed by overnight incubation in a cell incubator at 37 °C and 0 % CO2. The next day, each Example compound dissolved in DMSO across 9 concentration ranges and a DMSO control group were treated on the MDA-MB-231 cells at 37 °C and 0 % CO2 for 6 hours. After the compound treatment, the medium in the 96-well plate was removed, and 60 µL of a fixing solution (4.0 % paraformaldehyde in PBS) was added to each well, followed by standing for 20 minutes. After removing the fixing solution and washing with PBS, 60 µL of PBS containing 0.1 % Triton X-100 was dispensed into each well, followed by shaking at room temperature for 15 minutes. After washing with PBS, 100 µL of blocking buffer was added, followed by shaking at room temperature for 1 hour. After removing the blocking buffer, primary antibodies, which are RNA polymerase II subunit B1 phospho-Ser2 (1:500, Cell signaling technology) and RNA polymerase II subunit B1 carboxy-terminal domain (1:200, Cell signaling technology), were added at 60 µL per well and reacted overnight at 4 °C. After adding 150 µL of PBS containing 0.1 % Triton X-100 and washing at least twice by shaking at room temperature for 5 minutes, 60 µL of a secondary antibody was added, followed by shaking at room temperature for 1 hour while blocking light. After adding 150 µL of PBS containing 0.1 % Triton X-100 and washing at least twice by shaking at room temperature for 5 minutes, 150 µL of PBS was added again, followed by washing at least twice by shaking at room temperature for 5 minutes. The plate was scanned using a Li-COR Odyssey machine with the wells filled with PBS. IC50 values were calculated by fitting a dose-response curve using a 4-parameter model of Prism (Graphpad) software.

Setting [4] is: kinase reaction 120 minutes, 33P-gamma-ATP, read-out: CDK12 IC50.
The mark [5] stands for this setting: kinase reaction 120 minutes, 33P-gamma-ATP, read-out: CDK13 IC50.

Read-outs that look alike come from different tables or passages of the source.

Chain of CDK13 (Q14004 whole entry, species assumed): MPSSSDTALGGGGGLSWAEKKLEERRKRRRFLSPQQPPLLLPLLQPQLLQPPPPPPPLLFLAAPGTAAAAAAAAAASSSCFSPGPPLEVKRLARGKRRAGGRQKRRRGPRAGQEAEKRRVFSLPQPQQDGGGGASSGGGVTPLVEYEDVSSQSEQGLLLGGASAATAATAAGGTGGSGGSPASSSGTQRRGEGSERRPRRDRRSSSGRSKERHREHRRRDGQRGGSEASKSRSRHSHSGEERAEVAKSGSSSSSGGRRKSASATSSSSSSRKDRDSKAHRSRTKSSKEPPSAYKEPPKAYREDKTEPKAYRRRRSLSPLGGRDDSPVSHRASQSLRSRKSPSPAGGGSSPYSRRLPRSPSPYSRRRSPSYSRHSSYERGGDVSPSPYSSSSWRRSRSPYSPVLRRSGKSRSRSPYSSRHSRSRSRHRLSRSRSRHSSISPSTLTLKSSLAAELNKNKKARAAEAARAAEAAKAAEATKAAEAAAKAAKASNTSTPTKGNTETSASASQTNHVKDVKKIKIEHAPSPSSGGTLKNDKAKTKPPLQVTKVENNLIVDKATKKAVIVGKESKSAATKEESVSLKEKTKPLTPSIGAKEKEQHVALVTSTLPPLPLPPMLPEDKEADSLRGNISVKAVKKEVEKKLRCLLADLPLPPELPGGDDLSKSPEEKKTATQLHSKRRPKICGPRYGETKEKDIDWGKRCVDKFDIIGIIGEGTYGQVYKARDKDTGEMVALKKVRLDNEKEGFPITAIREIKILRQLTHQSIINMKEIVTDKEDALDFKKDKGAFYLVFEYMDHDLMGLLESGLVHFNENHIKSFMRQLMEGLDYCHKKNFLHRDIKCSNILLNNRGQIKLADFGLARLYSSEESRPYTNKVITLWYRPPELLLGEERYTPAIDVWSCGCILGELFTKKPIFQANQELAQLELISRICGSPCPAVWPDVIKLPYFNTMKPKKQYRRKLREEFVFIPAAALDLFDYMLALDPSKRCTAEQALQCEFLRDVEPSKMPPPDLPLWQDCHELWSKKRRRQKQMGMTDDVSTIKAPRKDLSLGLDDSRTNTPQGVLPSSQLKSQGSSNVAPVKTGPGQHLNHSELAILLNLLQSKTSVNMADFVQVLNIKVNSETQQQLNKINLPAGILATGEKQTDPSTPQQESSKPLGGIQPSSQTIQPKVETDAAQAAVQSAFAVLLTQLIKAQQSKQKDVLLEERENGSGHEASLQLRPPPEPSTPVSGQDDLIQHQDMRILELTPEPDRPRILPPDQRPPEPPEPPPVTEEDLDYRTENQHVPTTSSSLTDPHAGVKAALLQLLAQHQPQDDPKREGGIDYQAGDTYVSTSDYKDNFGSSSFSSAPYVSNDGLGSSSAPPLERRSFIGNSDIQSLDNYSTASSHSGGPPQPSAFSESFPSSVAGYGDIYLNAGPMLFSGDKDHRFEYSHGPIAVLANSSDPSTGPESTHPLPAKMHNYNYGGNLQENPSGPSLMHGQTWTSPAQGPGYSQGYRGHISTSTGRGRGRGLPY
Chain of CDK13 (O75909 whole entry partner, species assumed): as the sequence (O75909 whole entry partner, species assumed) above

Broadly, the IC50 is the concentration that inhibits the measured activity by half. Turning to `Cc1cc(C)n2cc(CNc3cc(N4CCOCC4)nn4c(C(F)(F)F)cnc34)nc2n1` [Example 88, N-((5,7-dimethylimidazo[1,2-a]pyrimidin-2-yl)methyl)-6-morpholino-3-(trifluoromethyl)imidazo[1,2-b]pyridazin-8-amine], the IC50 on CDK12 [1] (setting [4]) was below 100 nM; on CDK13 it was below 100 nM; in test [2] it was 50 to 500 nM; on CDK12 [3], 300 to 3000 nM.
For `OCC1CN(c2cc(NCc3nc4cc(Cl)c(Cl)cc4[nH]3)c3ncc(C(F)(F)F)n3n2)C1` [Example 60, (1-(8-(((5,6-dichloro-1H-benzo[d]imidazol-2-yl)methyl)amino)-3-(trifluoromethyl)imidazo[1,2-b]pyridazin-6-yl)azetidin-3-yl)methanol], the IC50 on CDK12 [1] (setting [4]) is 100 to 500 nM; on CDK13 it was below 100 nM; in test [2], 50 to 500 nM; on CDK12 [3] it was 300 to 3000 nM.
Take `OC1(C2CN(c3cc(NCc4nc5cc(Cl)c(Cl)cc5[nH]4)c4ncc(C(F)(F)F)n4n3)C2)CC1` [Example 50, 1-(1-(8-(((5,6-dichloro-1H-benzo[d]imidazol-2-yl)methyl)amino)-3-(trifluoromethyl)imidazo[1,2-b]pyridazin-6-yl)azetidin-3-yl)cyclopropan-1-ol]: the IC50 on CDK12 [1] (setting [4]) lay within 100 to 500 nM; at CDK13 (setting [5]), 100 to 500 nM; in test [2], 50 to 500 nM; at CDK12 [3], 300 to 3000 nM.
On to `Cc1cnc2c(NCc3nc4ccc(F)c(F)c4[nH]3)cc(N3CCOCC3)nn12` [Example 4, N-((6,7-difluoro-1H-benzo[d]imidazol-2-yl)methyl)-3-methyl-6-morpholinoimidazo[1,2-b]pyridazin-8-amine], for which the IC50 is above 500 nM on CDK12 [1] (setting [4]), 100 to 500 nM on CDK13 (setting [5]), above 500 nM in test [2] and above 3000 nM on CDK12 [3].
In the case of `N#CC1CCN(c2cc(NCc3nc4ccc(F)c(F)c4[nH]3)c3ncc(C(F)(F)F)n3n2)CC1` [Example 56, 1-(8-(((6,7-difluoro-1H-benzo[d]imidazol-2-yl)methyl)amino)-3-(trifluoromethyl)imidazo[1,2-b]pyridazin-6-yl)piperidine-4-carbonitrile], the IC50 was below 100 nM on CDK12 [1] (setting [4]), below 100 nM on CDK13 (setting [5]), at most 50 nM in test [2] and 300 to 3000 nM on CDK12 [3].
In the case of `CN1CC2CCC(C1)N2c1cc(NCc2nc3cc(Cl)c(Cl)cc3[nH]2)c2ncc(C(F)(F)F)n2n1` [Example 96, N-((5,6-dichloro-1H-benzo[d]imidazol-2-yl)methyl)-6-(3-methyl-3,8-diazabicyclo[3.2.1]octan-8-yl)-3-(trifluoromethyl)imidazo[1,2-b]pyridazin-8-amine], the half-inhibitory concentration (IC50) was 100 to 500 nM on CDK12 [1] (setting [4]), below 100 nM on CDK13 (setting [5]), at most 50 nM in test [2] and below 300 nM at CDK12 [3].
With `CN1CC2CC(C1)N2c1cc(NCc2nc3cc(Cl)c(Cl)cc3[nH]2)c2ncc(C(F)(F)F)n2n1` [Example 100, N-((5,6-dichloro-1H-benzo[d]imidazol-2-yl)methyl)-6-(3-methyl-3,6-diazabicyclo[3.1.1]heptan-6-yl)-3-(trifluoromethyl)imidazo[1,2-b]pyridazin-8-amine], the IC50 is below 100 nM at CDK12 [1] (setting [4]), below 100 nM on CDK13 (setting [5]), at most 50 nM in test [2] and below 300 nM on CDK12 [3].
For the compound `FC(F)(F)c1cnc2c(NCc3nc4cc(Cl)c(Cl)cc4o3)cc(N3CCOCC3)nn12` [Example 91, N-((5,6-dichlorobenzo[d]oxazol-2-yl)methyl)-6-morpholino-3-(trifluoromethyl)imidazo[1,2-b]pyridazin-8-amine], the IC50 on CDK12 [1] (setting [4]) is above 500 nM; on CDK13 (setting [5]) it was above 500 nM; in test [2], 50 to 500 nM; at CDK12 [3], 300 to 3000 nM.
Turning to `N[C@H]1CCN(c2cc(NCc3nc4ccc(F)c(F)c4[nH]3)c3ncc(C(F)(F)F)n3n2)C1` [Example 38], the IC50 at CDK12 [1] (setting [4]) is below 100 nM; at CDK13 (setting [5]) it was below 100 nM; in test [2] it was at most 50 nM; at CDK12 [3] it was below 300 nM.
As for `FC(F)(F)c1cnc2c(NCc3nc4cc(Cl)c(Cl)cc4s3)cc(N3CCOCC3)nn12` [Example 93, N-((5,6-dichlorobenzo[d]thiazol-2-yl)methyl)-6-morpholino-3-(trifluoromethyl)imidazo[1,2-b]pyridazin-8-amine], the IC50 at CDK12 [1] (setting [4]) was above 500 nM; at CDK13 (setting [5]), above 500 nM; in test [2] it was 50 to 500 nM; on CDK12 [3], 300 to 3000 nM.
As to `CCc1cnc2c(NCc3nc4ccc(F)c(F)c4[nH]3)cc(N3CCOCC3)nn12` [Example 5, N-((6,7-difluoro-1H-benzo[d]imidazol-2-yl)methyl)-3-ethyl-6-morpholinoimidazo[1,2-b]pyridazin-8-amine], the IC50 on CDK12 [1] (setting [4]) was 100 to 500 nM; at CDK13 (setting [5]) it was below 100 nM; in test [2], 50 to 500 nM; at CDK12 [3], 300 to 3000 nM.
For `Fc1ccc2nc(CNc3cc(N4CC5CCC(C4)N5)nn4c(C(F)(F)F)cnc34)[nH]c2c1F` [Example 10, 6-(3,8-diazabicyclo[3.2.1]octan-3-yl)-N-((6,7-difluoro-1H-benzo[d]imidazol-2-yl)methyl)-3-(trifluoromethyl)imidazo[1,2-b]pyridazin-8-amine], in that order: below 100 nM, below 100 nM, at most 50 nM and below 300 nM.
`CC#Cc1cnc2c(NCc3nc4ccc(F)c(F)c4[nH]3)cc(-c3cnc(N)nc3)nn12` [Example 20, 6-(2-aminopyrimidin-5-yl)-N-((6,7-difluoro-1H-benzo[d]imidazol-2-yl)methyl)-3-(prop-1-yn-1-yl)imidazo[1,2-b]pyridazin-8-amine]: the IC50 at CDK12 [1] (setting [4]) was above 500 nM; at CDK13 (setting [5]), 100 to 500 nM; in test [2], 50 to 500 nM; on CDK12 [3], 300 to 3000 nM.
As to `NC1CCN(c2cc(NCc3nc4cc(F)c(F)cc4[nH]3)c3ncc(C(F)(F)F)n3n2)CC1` [Example 111, 6-(4-aminopiperidin-1-yl)-N-((5,6-difluoro-1H-benzo[d]imidazol-2-yl)methyl)-3-(trifluoromethyl)imidazo[1,2-b]pyridazin-8-amine], the IC50 is below 100 nM at CDK12 [1] (setting [4]), below 100 nM on CDK13 (setting [5]), at most 50 nM in test [2] and below 300 nM on CDK12 [3].
`Cc1cc2[nH]c(CNc3cc(N4CCOCC4)nn4c(C(F)(F)F)cnc34)nc2cc1C(F)(F)F` [Example 80, N-((6-methyl-5-(trifluoromethyl)-1H-benzo[d]imidazol-2-yl)methyl)-6-morpholino-3-(trifluoromethyl)imidazo[1,2-b]pyridazin-8-amine]: the IC50 on CDK12 [1] (setting [4]) is below 100 nM; on CDK13 (setting [5]), below 100 nM; in test [2], at most 50 nM; on CDK12 [3], below 300 nM.
On to `Fc1ccc2nc(CNc3cc(N4CCOCC4)nn4c(Cl)cnc34)[nH]c2c1F` [Example 27, 3-chloro-N-((6,7-difluoro-1H-benzo[d]imidazol-2-yl)methyl)-6-morpholinoimidazo[1,2-b]pyridazin-8-amine], for which the IC50 was above 500 nM on CDK12 [1], above 500 nM at CDK13 (setting [5]), above 500 nM in test [2] and above 3000 nM on CDK12 [3].

Values taken from patent publication EP4813991A1 (iLeadBMS Co., Ltd., priority 2023, dated 2025).
